# Legend:
# VAP-1/SSAO = VAP-1/SSAO (Homo sapiens (Human), UniProt Q16853); assay: VAP-1 cell activity assay (HUVEC or CHO cells transfected with VAP-1/pCDNA (3.1) plasmid, Amplex Red); assay type: cell-based; settings: HUVEC or CHO cells transfected with VAP-1 plasmid; read-out: VAP-1/SSAO Cellular Inhibitory Activity IC50
# Method: The inhibition of the sample on VAP-1 cell activity was measured by using an Amplex® Red Monoamine Oxidase kit (Invitrogen #A12214).
# The cultured HUVEC or CHO cells were plated into a 6-well plate at a density of 0.8 M/well, placed in a 37° C., 5% CO2 incubator for incubation for 24 hours, and then the cells was transferred with a Lipo2000 reagent and a VAP-1/pCDNA (3.1) plasmid, and liquid was changed for the cells after 5 hours (Lipo2000 was toxic to the cells); after 24 hours, the cells were digested and plated into 384-well plates with a density of 25 μl, 10000 cells/well, and liquid was replaced with medium without FBS for the cells after 6-7 hours, and the cell plates were incubated overnight at 37° C. in a 5% CO2 incubator.
# 1) Dilution of the compound: serial dilution in 4× gradient was carried out with 100% DMSO, 10 points were diluted, the starting concentration of the to-be-tested compound was 0.5 mM (final concentration was 1 μM); 100 nl of compound solution was transferred to a 384-well cell assay plate with ECHO. Negative control wells: 100 nl of DMSO; background control wells: 100 nl DMSO+25 μL medium.
# 2) The reaction was carried out in the dark at room temperature for 30 min.
# 3) Preparation of Amplex Red reagent+HRP+benzylamine substrate working solution: Amplex Red reagent+HRP+benzylamine substrate working solution (200 μM Amplex Red reagent+1 U/mL HRP+1 mM benzylamine): 45 μl of 20 mM Amplex Red reagent mother solution, 22.5 μl of 200 U/ml horseradish peroxidase (HRP) mother solution and 45 ul of 100 mM benzylamine were tanken and added to 4.3875 ml of 1× reaction buffer.
# 4) After 30 min, 25 μl of the substrate working solution was added to a 384-well plate, and a final concentration was 100 μM Amplex Red reagent+0.5 U/mL HRP+0.5 mM benzylamine, respectively.
# 5) The reaction was carried out in the dark at room temperature for 60 minutes, and the fluorescence value was measured by Envision: the excitation wave was 535 nm, and the emission wave was 590 nm.
# 6) Inhibition rate calculation formula: % inhibition rate=(1−(test hole minus background−positive control well minus background)/(negative control well minus background-positive control well minus background))*100
# 7) The data were analyzed with Prism. The IC50 of the sample against VAP-1 cells was calculated.
# [1] = Compound pharmacokinetic evaluation in CD-1 mice; assay type: in vivo, CD-1 mouse; settings: male, mouse, plasma
# Method: Experimental purpose: compound pharmacokinetics were tested in CD-1 mice
# CD-1 mouse (Male, 25-35 g, 6-9 weeks old, Shanghai Slack);
# Experimental procedure: the pharmacological characteristics of the compound after intravenous and oral administration were tested in rodents by standard protocol, candidate compounds in the experiment was prepared into clear solutions to be administered to the mice in a single intravenous injection and orally. The intravenous and oral solvents were a certain proportion of an aqueous hydroxypropyl β-cyclodextrin solution or a physiological saline solution. Whole blood samples within 24 hours were collected, and centrifuged at 3000 g for 15 minutes, the supernatant was separated to obtain plasma samples, 4 times volume of acetonitrile solution containing internal standard was added to precipitate protein, centrifuging was conducted to take the supernatant, equal volume of water was added and centrifuging was conducted to take the supernatant to be sampled. The LC-MS/MS analysis method was used to quantitatively analyze the plasma concentration, and the pharmacokinetic parameters such as peak concentration, peak time, clearance rate, half-life, area under the drug concentration-time curve, and bioavailability were calculated.
# [2] = Distribution of compounds in liver and blood of CD-1 mice; assay type: in vivo; settings: single oral dose
# Method: Experimental purpose: distribution of compounds in liver and blood of CD-1 mice was tested;
# CD-1 Mice (male, 25-35 g, 6-9 weeks old, Shanghai Slack);
# Experimental procedure: after oral administration, the drug was distributed in the liver and blood of rodents, candidate compounds in the experiment were formulated into a clear solution to be administered to mice in a single oral dose. The oral solvent was a certain proportion of an aqueous solution of hydroxypropyl P-cyclodextrin or a physiological saline solution. The concentration of the drug in the liver and blood was measured at 1 hour and 4 hours after administration.
# CYP1A2 = CYP1A2 (Homo sapiens (Human), UniProt P05177); assay: Human liver microsomal CYP inhibition assay; assay type: in vitro ADME; settings: human liver microsomes, 5-in-1 probe substrate
# Chain of CYP1A2 (P05177 whole entry): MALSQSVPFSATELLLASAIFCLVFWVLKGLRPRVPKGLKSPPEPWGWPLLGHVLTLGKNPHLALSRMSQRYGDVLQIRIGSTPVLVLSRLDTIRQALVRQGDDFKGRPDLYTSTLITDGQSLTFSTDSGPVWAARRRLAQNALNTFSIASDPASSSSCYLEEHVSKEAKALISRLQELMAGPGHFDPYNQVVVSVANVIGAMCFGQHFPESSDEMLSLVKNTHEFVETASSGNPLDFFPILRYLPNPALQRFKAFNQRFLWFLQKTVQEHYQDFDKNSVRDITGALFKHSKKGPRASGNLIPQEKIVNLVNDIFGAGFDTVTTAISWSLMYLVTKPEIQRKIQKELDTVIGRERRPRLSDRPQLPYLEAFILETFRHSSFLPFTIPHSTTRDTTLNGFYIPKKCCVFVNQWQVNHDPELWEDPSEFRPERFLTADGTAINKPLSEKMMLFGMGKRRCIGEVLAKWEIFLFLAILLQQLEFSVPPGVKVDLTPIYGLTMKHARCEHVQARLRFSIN
# Method: (§1) The purpose of the study was to evaluate the inhibition of the test sample on human liver microsomal cytochrome P450 isozymes (CYP1A2, CYP2C9, CYP2C19, CYP2D6, and CYP3A4) by using the CYP isozyme 5-in-1 probe substrate.
# (§2) Mixed human liver microsomes (HLM) were purchased from Corning Inc. (Steuben, N.Y., USA) or XenoTech, LLC. (Lenexa, Kans., USA) or other suppliers, and stored at the temperature below −70° C. prior to use.
# (§3) A series of diluted test sample working solution were added to an incubation system containing cofactors of human liver microsomes, a probe substrate and a circulation system, and the control without a test substance but containing a solvent was used as enzyme activity control (100%). The concentration of the metabolite produced by the probe sample in the sample was determined by liquid chromatography-tandem mass spectrometry (LC-MS/MS). Non-linear regression analysis was performed on the concentration of the average percent activity of the test sample by using SigmaPlot (V.11). The IC50 value was calculated by a three-parameter or four-parameter recursive logarithmic equation.
# CYP2C19 = CYP2C19 (Homo sapiens (Human), UniProt P33261); assay: Human liver microsomal CYP inhibition assay; assay type: in vitro ADME; settings: human liver microsomes, 5-in-1 probe substrate
# Chain of CYP2C19 (P33261 whole entry): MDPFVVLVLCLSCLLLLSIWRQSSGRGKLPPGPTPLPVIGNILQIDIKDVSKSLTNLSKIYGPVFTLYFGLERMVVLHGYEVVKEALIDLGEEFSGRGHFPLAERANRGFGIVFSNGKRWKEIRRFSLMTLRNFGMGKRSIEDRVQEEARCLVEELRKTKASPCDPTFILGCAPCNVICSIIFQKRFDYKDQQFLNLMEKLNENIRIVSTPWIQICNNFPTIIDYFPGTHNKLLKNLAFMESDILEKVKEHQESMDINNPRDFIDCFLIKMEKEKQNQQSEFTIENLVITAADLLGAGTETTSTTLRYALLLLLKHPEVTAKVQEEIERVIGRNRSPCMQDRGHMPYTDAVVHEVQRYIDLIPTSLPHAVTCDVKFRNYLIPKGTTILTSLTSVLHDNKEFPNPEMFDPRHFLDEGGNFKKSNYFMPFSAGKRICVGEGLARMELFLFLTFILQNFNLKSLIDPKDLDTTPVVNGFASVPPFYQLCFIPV
# Method: as §1, §2, §3
# CYP2C9 = CYP2C9 (Homo sapiens (Human), UniProt P11712); assay: Human liver microsomal CYP inhibition assay; assay type: in vitro ADME; settings: human liver microsomes, 5-in-1 probe substrate
# Chain of CYP2C9 (P11712 whole entry): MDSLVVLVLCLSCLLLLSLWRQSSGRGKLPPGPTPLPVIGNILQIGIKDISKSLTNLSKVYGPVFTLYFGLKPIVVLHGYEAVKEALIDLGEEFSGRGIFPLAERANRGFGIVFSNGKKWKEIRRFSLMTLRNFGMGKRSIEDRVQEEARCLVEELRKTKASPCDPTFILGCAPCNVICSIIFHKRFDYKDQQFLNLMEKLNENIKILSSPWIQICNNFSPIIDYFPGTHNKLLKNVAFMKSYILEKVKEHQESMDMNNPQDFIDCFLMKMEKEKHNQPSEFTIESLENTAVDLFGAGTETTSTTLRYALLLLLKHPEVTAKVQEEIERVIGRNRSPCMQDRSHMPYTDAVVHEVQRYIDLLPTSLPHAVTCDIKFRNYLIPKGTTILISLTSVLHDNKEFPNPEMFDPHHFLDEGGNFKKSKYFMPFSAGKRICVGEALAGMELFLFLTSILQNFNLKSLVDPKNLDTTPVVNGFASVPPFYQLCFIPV
# Method: as §1, §2, §3
# CYP2D6 = CYP2D6 (Homo sapiens (Human), UniProt P10635); assay: Human liver microsomal CYP inhibition assay; assay type: in vitro ADME; settings: human liver microsomes, 5-in-1 probe substrate
# Chain of CYP2D6 (P10635 whole entry): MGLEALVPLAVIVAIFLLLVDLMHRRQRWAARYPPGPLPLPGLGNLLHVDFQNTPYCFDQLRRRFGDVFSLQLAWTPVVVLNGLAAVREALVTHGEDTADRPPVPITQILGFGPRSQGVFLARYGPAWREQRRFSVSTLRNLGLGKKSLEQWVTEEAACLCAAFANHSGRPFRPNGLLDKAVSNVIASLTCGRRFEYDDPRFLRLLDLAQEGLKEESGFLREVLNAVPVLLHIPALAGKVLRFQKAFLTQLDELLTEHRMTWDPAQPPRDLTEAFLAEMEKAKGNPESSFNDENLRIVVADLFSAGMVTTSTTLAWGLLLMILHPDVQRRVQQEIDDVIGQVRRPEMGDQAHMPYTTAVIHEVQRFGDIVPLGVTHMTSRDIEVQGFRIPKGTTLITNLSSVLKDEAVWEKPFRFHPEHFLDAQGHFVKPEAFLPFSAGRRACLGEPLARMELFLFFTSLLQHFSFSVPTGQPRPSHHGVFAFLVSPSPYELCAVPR
# Method: as §1, §2, §3
# CYP3A4 = CYP3A4 (Homo sapiens (Human), UniProt P08684); assay: Human liver microsomal CYP inhibition assay; assay type: in vitro ADME; settings: human liver microsomes, 5-in-1 probe substrate
# Chain of CYP3A4 (P08684 whole entry): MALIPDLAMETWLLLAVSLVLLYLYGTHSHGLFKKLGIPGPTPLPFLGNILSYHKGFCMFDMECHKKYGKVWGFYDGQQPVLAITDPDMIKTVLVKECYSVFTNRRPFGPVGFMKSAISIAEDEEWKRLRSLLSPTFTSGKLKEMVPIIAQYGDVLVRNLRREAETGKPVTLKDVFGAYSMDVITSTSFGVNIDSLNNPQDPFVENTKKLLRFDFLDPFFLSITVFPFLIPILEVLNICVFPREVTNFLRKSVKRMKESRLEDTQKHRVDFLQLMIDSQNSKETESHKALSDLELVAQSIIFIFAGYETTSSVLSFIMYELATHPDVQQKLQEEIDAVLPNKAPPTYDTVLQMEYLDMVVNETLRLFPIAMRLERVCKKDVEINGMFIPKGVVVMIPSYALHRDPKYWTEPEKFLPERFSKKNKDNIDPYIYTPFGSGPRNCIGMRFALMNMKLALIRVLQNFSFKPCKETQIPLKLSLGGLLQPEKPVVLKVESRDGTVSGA
# Method: as §1, §2, §3
# Chain of VAP-1/SSAO (Q16853 whole entry): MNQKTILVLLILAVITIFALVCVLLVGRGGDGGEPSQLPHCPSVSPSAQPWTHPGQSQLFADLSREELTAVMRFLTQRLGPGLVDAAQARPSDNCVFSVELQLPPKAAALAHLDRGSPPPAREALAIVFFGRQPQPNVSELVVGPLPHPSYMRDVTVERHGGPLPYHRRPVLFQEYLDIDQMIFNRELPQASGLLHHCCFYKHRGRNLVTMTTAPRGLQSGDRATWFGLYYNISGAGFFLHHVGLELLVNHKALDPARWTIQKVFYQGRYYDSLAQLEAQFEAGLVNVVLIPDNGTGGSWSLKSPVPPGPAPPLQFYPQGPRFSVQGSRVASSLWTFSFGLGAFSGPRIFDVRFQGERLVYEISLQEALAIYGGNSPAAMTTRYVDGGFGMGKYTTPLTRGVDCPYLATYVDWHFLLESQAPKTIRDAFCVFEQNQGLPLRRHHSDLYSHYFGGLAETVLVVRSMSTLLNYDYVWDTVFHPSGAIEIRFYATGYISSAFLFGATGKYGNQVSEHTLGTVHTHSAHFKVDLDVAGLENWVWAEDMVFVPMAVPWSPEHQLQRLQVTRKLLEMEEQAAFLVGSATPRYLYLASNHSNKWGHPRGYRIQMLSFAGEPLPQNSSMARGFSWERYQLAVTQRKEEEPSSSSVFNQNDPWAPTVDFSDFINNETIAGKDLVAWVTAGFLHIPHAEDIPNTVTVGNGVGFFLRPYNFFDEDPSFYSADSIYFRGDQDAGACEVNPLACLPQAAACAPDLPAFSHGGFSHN
smiles,measurement,setting,value
Cl.Cn1nc(-c2ccc(OC/C(=C/F)CN)cc2)nc1C(F)F [WX126],IC50,VAP-1/SSAO,0.0003 µM
same,AUC,"[1]; oral, read-out: Concentration Integral AUC",6.49 µM·h
same,Tmax,"[1]; oral, read-out: Peak Time Tmax",30 min
same,bioavailability,"[1]; po, read-out: Bioavailability F",102%
same,Cmax,"[1]; single intravenous injection and oral, read-out: Peak Concentration Cmax",3.53 µM
same,Liver Concentration,[2]; @1.0 hour,13520
same,Liver Concentration/Plasma Concentration ratio,[2]; @1.0 hour,15
same,Plasma Concentration,[2]; @1.0 hour,934
same,Liver Concentration,[2]; @4.0 hour,3364
same,Liver Concentration/Plasma Concentration ratio,[2]; @4.0 hour,17
same,Plasma Concentration,[2]; @4.0 hour,190
same,IC50,CYP1A2,5 µM
same,IC50,CYP2C19,17 µM
same,IC50,CYP2C9,24 µM
same,IC50,CYP2D6,36 µM
same,IC50,CYP3A4,> 50 µM

# — patent US11001563B2, “SSAO inhibitor” (SHANDONG DANHONG PHARMACEUTICAL CO., LTD., priority 2017, dated 2021)
